{"source": "patent US20160089391A1", "about": "“Molecular Targets for Cardiovascular Disease” (Temple University-of the Commonwealth System of Higher …, priority 2014, published 2016)", "key": {"[1]": {"system": "aorta of HHcy and HHcy/HG Cbs−/+ mice", "assay": "Endothelium-dependent vascular relaxation to ACh in thoracic aorta after in vivo calpain inhibitor administration", "set-up": "species or system mouse", "settings": "2 mg/kg BW i.p. daily for 2 weeks, p<0.05", "protocol": "Images (Left Panel) and quantification (Right Panel) showing HHcy and HG activates calpain in mouse aortic endothelial cells (MAECs, P0) isolated from CBS^−/+ mice (FIG. 3A). Calpain activity was measured in intact MAECs by the fluorescent substrate t-BOC-Leu-Met-CMAC (T-BOC, 10 μmol/L, 30 min). In FIG. 3B, calpain inhibitors rescued endothelium-dependent vascular relaxation to ACh in the aorta of HHcy CBS^−/+ and HHcy/HG CBS^−/+ mice in the presence of calpain inhibitors in vivo (Left Panel) and ex vivo (Right Panel). Left Panel: Calpain inhibitor MDL28170 (MDL, Sigma #M6690) was administrated in vivo by i.p. injection (2 mg/kg/day, 2 weeks). Right Panel: The arterial rings were incubated with calpain inhibitors: MDL, calpeptin and N-Acetyl-Leu-Leu-Met-CHO (ALLM, 20 μmol/L for all, Enzo life Sciences, PI-100-0005) for 1 hr. […]\nEndothelial function was assessed in the mouse thoracic aorta using a multiple-wire myograph (DMT 610) (Cheng et al., 2011, Blood 118:1998-2006; Cheng et al., 2007, Can J Physiol Pharmacol 85:404-412; Cheng et al., 2001, Hypertension 37:433-439). […]"}, "mouse thoracic aorta": {"system": "mouse thoracic aorta", "assay": "Endothelium-dependent vascular relaxation to ACh in aortic rings treated ex vivo (multiple-wire myograph)", "settings": "aortic rings of HHcy/HG-Cbs−/+ mice preincubated with calpain inhibitor 20 μmol/L for 1 hour; p<0.05"}}, "data": [{"substance": "MDL28170", "values": [{"measurement": "endothelial function (endothelium-dependent vascular relaxation to ACh)", "setting": "[1]", "value": "largely improved"}, {"measurement": "aortic endothelium-dependent vascular relaxation to ACh", "setting": "mouse thoracic aorta", "value": "markedly improved"}]}]}
